From patent publication US8841233B2, “Herbicidal compositions comprising 4-amino-3-chloro-5-fluoro-6-(4-chloro-2-fluoro-3-methoxyphenyl) pyridine-2-carboxylic acid or a derivative thereof and 4-hydroxyphenyl-pyruvate dioxygenase (HPPD) inhibitors” (Dow Agrosciences LLC, priority 2012, dated 2014)

What was measured:
IPOHE = assay: Post-emergence foliar-applied weed control, greenhouse (Example I); type: in vivo, Ipomoea hederacea Jacq.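 As to Visual Weed Control (%) - 20 DAA IPOHE Obs: visual score 0 no injury to 100 complete kill versus untreated plants.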
Source text: (§1) Evaluation of Post-emergence Foliar-Applied Herbicidal Mixtures for Weed Control in Direct Seeded Rice
(§2) Seeds or nutlets of the desired test plant species were planted in a soil matrix prepared by mixing a loam or sandy loam soil (e.g., 28.6 percent silt, 18.8 percent clay, and 52.6 percent sand, with a pH of about 5.8 and an organic matter content of about 1.8 percent) and calcareous grit in an 80 to 20 ratio. The soil matrix was contained in plastic pots with a volume of 1 quart and a surface area of 83.6 square centimeters (cm^2). When required to ensure good germination and healthy plants, a fungicide treatment and/or other chemical or physical treatment was applied. The plants were grown for 8-22 days in a greenhouse with an approximate 14 h photoperiod which was maintained at about 29° C. during the day and 26° C. during the night. Nutrients (Peters Excel® 15-5-15 5-Ca 2-Mg and iron chelate) were applied in the irrigation solution as needed and water was added on a regular basis. Supplemental lighting was provided with overhead metal halide 1000-Watt lamps as necessary. The plants were employed for testing when they reached the first through fourth true leaf stage.
(§3) Treatments consisted of the acid or esters of 4-amino-3-chloro-5-fluoro-6-(4-chloro-2-fluoro-3-methoxy-phenyl)pyridine-2-carboxylic acid (Compound A), each formulated as an SC (suspension concentrate), and various herbicidal components alone and in combination. Forms of Compound A were applied on an acid equivalent basis.
(§4) Other herbicidal components were applied on an active ingredient basis and included 4-hydroxyphenyl pyruvate dioxygenase (HPPD)-inhibiting herbicides mesotrione formulated as Callisto®, sulcotrione formulated as Mikado®, pyrazolynate formulated as Sunbird® 10% GR, and benzobicyclon formulated as Benzobicyclon 3.5%.
(§5) Treatment requirements were calculated based upon the rates being tested, the concentration of active ingredient or acid equivalent in the formulation, and a 12 mL application volume at a rate of 187 L/ha.
(§6) For treatments comprised of formulated compounds, measured amounts of compounds were placed individually in 25 mL glass vials and diluted in a volume of 1.25% (v/v) Agri-Dex® crop oil concentrated to obtain 12× stock solutions. […] Application solutions were prepared by adding an appropriate amount of each stock solution (e.g., 1 mL) and diluted to the appropriate final concentrations with the addition of 10 mL of an aqueous mixture of 1.25% (v/v) crop oil concentrate so that the final spray solutions contained 1.25+/−0.05% (v/v) crop oil concentrate.
(§7) For treatments comprised of formulated and technical compounds, weighed amounts of the technical materials were placed individually in 25 mL glass vials and dissolved in a volume of 97:3 v/v acetone/DMSO to obtain 12× stock solutions, and measured amounts of the formulated compounds were placed individually in 25 mL glass vials and diluted in a volume of 1.5% (v/v) crop oil concentrate or water to obtain 12× stock solutions. […] Application solutions were prepared by adding an appropriate amount of each stock solution (e.g., 1 mL) and diluted to the appropriate final concentrations with the addition of an appropriate amount of an aqueous mixture of 1.5% (v/v) crop oil concentrate so that the final spray solutions contained 1.25% (v/v) crop oil concentrate. As required, additional water and/or 97:3 v/v acetone/DMSO was added to individual application solutions so that the final acetone and DMSO concentrations of the application solutions being compared were 8.1% and 0.25%, respectively.
(§8) All stock solutions and applications solutions were visually inspected for compound compatibility prior to application. Spray solutions were applied to the plant material with an overhead Mandel track sprayer equipped with a 8002E nozzles calibrated to deliver 187 L/ha over an application area of 0.503 m^2 at a spray height of 18 to 20 inches (46 to 50 cm) above average plant canopy height. […]

ECHOR = assay: In-water applied weed control, transplanted paddy rice, greenhouse (Example II); type: in vivo, Echinochloa oryzoides (Ard.) Fritsch
Protocol: (§9) Evaluation of in-Water Applied Herbicidal Mixtures for Weed Control in Transplanted Paddy Rice
(§10) Weed seeds or nutlets of the desired test plant species were planted in puddled soil (mud) prepared by mixing a shredded, non-sterilized mineral soil (50.5 percent silt, 25.5 percent clay, and 24 percent sand, with a pH of about 7.6 and an organic matter content of about 2.9 percent) and water at a 1:1 volumetric ratio. The prepared mud was dispensed in 365 mL aliquots into 16-ounce (oz.) non-perforated plastic pots with a surface area of 86.59 square centimeters (cm^2) leaving a headspace of 3 centimeters (cm) in each pot. Mud was allowed to dry overnight prior to planting or transplanting. Rice seeds were planted in Sun Gro MetroMix® 306 planting mixture, which typically has a pH of 6.0 to 6.8 and an organic matter content of about 30 percent, in plastic plug trays. Seedlings at the second or third leaf stage of growth were transplanted into 840 mL of mud contained in 32-oz. non-perforated plastic pots with a surface area of 86.59 cm^2 4 days prior to herbicide application. The paddy was created by filling the headspace of the pots with 2.5 to 3 cm of water. When required to ensure good germination and healthy plants, a fungicide treatment and/or other chemical or physical treatment was applied. The plants were grown for 4-22 days in a greenhouse with an approximate 14 h photoperiod which was maintained at about 29′C during the day and 26° C. during the night. Nutrients were added as Osmocote® (19:6:12, N:P:K+ minor nutrients) at 2 g per 16-oz. pot and 4 g per 32-oz. pot. Water was added on a regular basis to maintain the paddy flood, and supplemental lighting was provided with overhead metal halide 1000-Watt lamps as necessary. The plants were employed for testing when they reached the first through fourth true leaf stage.
as §3, with “(compound A)” for “(Compound A),”, “concentrate)” for “concentrate),”, “compound” for “Compound”
as §4, with “3.5% or technical material.” for “3.5%.”
(§11) Treatment requirements for each compound or herbicidal component were calculated based upon the rates being tested, the concentration of active ingredient or acid equivalent in the formulation, an application volume of 2 mL per component per pot, and an application area of 86.59 cm^2 per pot.
(§12) For formulated compounds, a measured amount was placed in an individual 100 or 200 mL glass vial and was dissolved in a volume of 1.25% (v/v) Agri-Dex® crop oil concentrate to obtain application solutions.
(§13) For technical grade compounds, a weighed amount was placed in an individual 100 to 200 mL glass vial and was dissolved in a volume of acetone to obtain concentrated stock solutions. […] The concentrated stock solutions obtained were diluted with an equivalent volume of an aqueous mixture containing 2.5% (v/v) crop oil concentrate so that the final application solutions contained 1.25% (v/v) crop oil concentrate.
(§14) Applications were made by injecting with a pipetter appropriate amounts of the application solutions, individually and sequentially, into the aqueous layer of the paddy. Control plants were treated in the same manner with the solvent blank. Applications were made so that all treated plant material received the same concentrations of acetone and crop oil concentrate.
(§15) The treated plants and control plants were placed in a greenhouse as described above and water was added as needed to maintain a paddy flood. […]

ECHCG [1] = assay: as above; type: in vivo, Echinochloa crusgalli (L.) Beauv.; conditions: for Visual Weed Control (%) - 22 DAA ECHCG Obs: Benzobicyclon (3.5%)
Protocol: as §9, §10
as §3, with “(compound A)” for “(Compound A),”, “concentrate)” for “concentrate),”, “compound” for “Compound”
as §4, with “3.5% or technical material.” for “3.5%.”
as §11, §12, §13, §14, §15

BRAPP = assay: Post-emergence foliar-applied weed control, greenhouse (Example I); type: in vivo
Source text: as §1, §2, §3, §4, §5, §6, §7, §8

ECHCG [2] = assay: as above; type: in vivo, Echinochloa crusgalli (L.) Beauv.
Source text: as §1, §2, §3, §4, §5, §6, §7, §8

ECHCO = assay: as above; type: in vivo, Echinochloa colona (L.) Link
Source text: as §1, §2, §3, §4, §5, §6, §7, §8

DIGSA = assay: as above; type: in vivo, Digitaria sanguinalis (L.) Scop.; conditions: 37.5 gai/ha
Source text: as §1, §2, §3, §4, §5, §6, §7, §8

SCPMA = assay: In-water applied weed control, transplanted paddy rice, greenhouse (Example II); type: in vivo
Protocol: as §9, §10
as §3, with “(compound A)” for “(Compound A),”, “concentrate)” for “concentrate),”, “compound” for “Compound”
as §4, with “3.5% or technical material.” for “3.5%.”
as §11, §12, §13, §14, §15

SCPJU = assay: Post-emergence foliar-applied weed control, greenhouse (Example I); type: in vivo, Schoenoplectus juncoides (Roxb.) Palla
Source text: as §1, §2, §3, §4, §5, §6, §7, §8

CYPIR = assay: as above; type: in vivo, Cyperus iria L.
Source text: as §1, §2, §3, §4, §5, §6, §7, §8

CYPRO = assay: In-water applied weed control, transplanted paddy rice, greenhouse (Example II); type: in vivo, Cyperus rotundus L.
Protocol: as §9, §10
as §3, with “(compound A)” for “(Compound A),”, “concentrate)” for “concentrate),”, “compound” for “Compound”
as §4, with “3.5% or technical material.” for “3.5%.”
as §11, §12, §13, §14, §15

[3] = 50 gai/ha, Benzobicyclon (technical)
[4] = 100 gae/ha, Benzobicyclon (technical)
[5] = 100 gai/ha, Benzobicyclon (3.5%)
[6] = 200 gai/ha, Benzobicyclon (3.5%)

CS(=O)(=O)c1ccc(C(=O)C2C(=O)CCCC2=O)c(Cl)c1 [Sulcotrione, 2-[2-chloro-4-(methylsulfonyl)benzoyl]-1,3-cyclohexanedione, reference compound] was tested, and the “Visual Control (%) - 20 DAA IPOHE Obs” value (IPOHE; 37.5 gai/ha) was 20%, the “Visual Weed Control (%) - 20 DAA IPOHE Obs” value (IPOHE; 37.5 gai/ha) was 20% and the “Visual Weed Control (%) - 20 DAA IPOHE Obs” value (IPOHE; 75 gai/ha) was 30%. The “Visual Weed Control (%) - 20 DAA IPOHE Obs” value (IPOHE; 150 gai/ha) was 80%, the “Visual Weed Control (%) - 20 DAA ECHOR Obs” value (ECHOR; 22.5 gai/ha) was 10% and the “Visual Weed Control (%) - 20 DAA ECHCG Obs” value (ECHCG [1]; 22.5 gai/ha) was 0%. The “Visual Weed Control (%) - 20 DAA BRAPP Obs” value (BRAPP; 37.5 gai/ha) was 0%, the “Visual Weed Control (%) - 20 DAA BRAPP Obs” value (BRAPP; 75 gai/ha) was 20% and the “Visual Weed Control (%) - 20 DAA BRAPP Obs” value (BRAPP; 150 gai/ha) was 60%. The “Visual Weed Control (%) - 20 DAA ECHCG Obs” value (ECHCG [2]; 37.5 gai/ha) was 0%, the “Visual Weed Control (%) - 20 DAA ECHCG Obs” value (ECHCG [2]; 75 gai/ha) was 20% and the “Visual Weed Control (%) - 20 DAA ECHCG Obs” value (ECHCG [2]; 150 gai/ha) was 95%. The “Visual Weed Control (%) - 20 DAA ECHCO Obs” value (ECHCO; 37.5 gai/ha) was 15%, the “Visual Weed Control (%) - 20 DAA ECHCO Obs” value (ECHCO; 75 gai/ha) was 35% and the “Visual Weed Control (%) - 20 DAA ECHCO Obs” value (ECHCO; 150 gai/ha) was 95%. For the same molecule, the “Visual Weed Control (%) - 20 DAA DIGSA Obs” value (DIGSA) was 25%.

With CS(=O)(=O)c1ccc(C(=O)C2=C(Sc3ccccc3)C3CCC(C3)C2=O)c(Cl)c1 (stereo not shown) [Benzobicyclon, 3-(2-chloro-4-mesylbenzoyl)-2-phenylthiobicyclo[3.2.1]oct-2-en-4-one, reference compound] the “Visual Weed Control (%) - 22 DAA ECHOR Obs” value (ECHOR; [3]) was 50%, the “Visual Weed Control (%) - 21 DAA ECHOR Obs” value (ECHOR; [4]) was 30% and the “Visual Weed Control (%) - 22 DAA ECHCG Obs” value (ECHCG [1]; 100 gai/ha) was 30%. The “Visual Weed Control (%) - 22 DAA ECHCG Obs” value (ECHCG [1]; 200 gai/ha) was 45%, the “Visual Weed Control (%) - 22 DAA ECHCG Obs” value (ECHCG [2]; 50 gai/ha) was 0% and the “Visual Weed Control (%) - 22 DAA ECHCG Obs” value (ECHCG [2]; 100 gai/ha) was 20%. The “Visual Weed Control (%) - 22 DAA ECHCG Obs” value (ECHCG [2]; 200 gai/ha) was 15%, the “Visual Weed Control (%) - 21 DAA SCPMA Obs” value (SCPMA; [4]) was 80% and the “Visual Weed Control (%) - 21 DAA SCPMA Obs” value (SCPMA; [5]) was 70%. The “Visual Weed Control (%) - 21 DAA SCPMA Obs” value (SCPMA; [6]) was 93%, the “Visual Weed Control (%) - 22 DAA ECHCO Obs” value (ECHCO; 50 gai/ha) was 10% and the “Visual Weed Control (%) - 22 DAA ECHCO Obs” value (ECHCO; 100 gai/ha) was 10%. The “Visual Weed Control (%) - 22 DAA ECHCO Obs” value (ECHCO; 200 gai/ha) was 85%, the “Visual Weed Control (%) - 22 DAA SCPJU Obs” value (SCPJU; 50 gai/ha) was 50% and the “Visual Weed Control (%) - 22 DAA SCPJU Obs” value (SCPJU; 100 gai/ha) was 60%. The “Visual Weed Control (%) - 22 DAA SCPJU Obs” value (SCPJU; 200 gai/ha) was 70%, the “Visual Weed Control (%) - 22 DAA CYPIR Obs” value (CYPIR; 100 gai/ha) was 0% and the “Visual Weed Control (%) - 22 DAA CYPIR Obs” value (CYPIR; 200 gai/ha) was 0%. The “Visual Weed Control (%) - 22 DAA CYPRO Obs” value (CYPRO; [3]) was 10%, the “Visual Weed Control (%) - 22 DAA CYPRO Obs” value (CYPRO; [5]) was 30% and the “Visual Weed Control (%) - 22 DAA CYPRO Obs” value (CYPRO; [6]) was 45%.
